Laboratory results: ChEMBL document CHEMBL1201862, “PubChem BioAssay data set” (2004)
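How tested: cells in 96-well plates exposed to compound for 48 hours at five concentrations. The concentration for 50% growth inhibition is given as GI50.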 The source made the active and inactive calls. No stated cut-off is given here; in the data, active = GI50 up to about 1.1 µM and inactive = higher.

What was measured:
Assay in all cases: DTP human tumour cell line panel, 48 h
A549 = test system: A549
ACHN = test system: ACHN
COLO 205 = test system: COLO 205
HCT-116 = test system: HCT-116
NCI-H460 = test system: NCI-H460
NCI-H522 = test system: NCI-H522
OVCAR-8 = test system: OVCAR-8
SK-MEL-28 = test system: SK-MEL-28
SK-OV-3 = test system: SK-OV-3
SNB-19 = test system: SNB-19
SW-620 = test system: SW-620
UACC-257 = test system: UACC-257
MOLT-4 = test system: MOLT-4
RXF 393 = test system: RXF 393
SF-539 = test system: SF-539
SR = test system: SR
HOP-62 = test system: HOP-62
RPMI-8226 = test system: RPMI-8226
DU-145 = test system: DU-145
MDA-MB-435 = test system: MDA-MB-435

Row | SMILES | GI50 (A549) | GI50 (ACHN) | GI50 (COLO 205) | GI50 (HCT-116) | GI50 (NCI-H460) | GI50 (NCI-H522) | GI50 (OVCAR-8) | GI50 (SK-MEL-28) | GI50 (SK-OV-3) | GI50 (SNB-19) | GI50 (SW-620) | GI50 (UACC-257) | GI50 (MOLT-4) | GI50 (RXF 393) | GI50 (SF-539) | GI50 (SR) | GI50 (HOP-62) | GI50 (RPMI-8226) | GI50 (DU-145) | GI50 (MDA-MB-435)
1 | O=C(O)C1CCC(=O)N1C(=O)COc1cc(Cl)c(Cl)cc1Cl (stereo not given) | > 100 µM (inactive) | > 100 µM (inactive) | > 100 µM (inactive) | > 100 µM (inactive) | > 100 µM (inactive) | > 100 µM (inactive) | > 100 µM (inactive) | > 100 µM (inactive) | > 100 µM (inactive) | > 100 µM (inactive) | > 100 µM (inactive) | > 100 µM (inactive) | – | – | – | – | – | – | – | –
2 | CC1=CC[C@H](C)C(C)(C)C1/C=C/C(C)=C/CC[C@@]1(CO)[C@H](CCCO)/C(=C(/C)C=O)CC[C@]1(C)O (stereo not given in full) | 0.877 µM (active) | 3.68 µM (inactive) | 1.05 µM (active) | – | 1.11 µM (active) | 4.06 µM (inactive) | 15 µM (inactive) | 11.4 µM (inactive) | 25.2 µM (inactive) | 8.51 µM (inactive) | 2.01 µM (inactive) | 15.2 µM (inactive) | 1.57 µM (inactive) | 14.6 µM (inactive) | 6.78 µM (inactive) | 0.493 µM (active) | – | – | – | –
3 | N#Cc1ccccc1NC(=O)C(=O)C(C(=O)c1ccccc1F)C1OC(=O)c2ccccc21 (stereo not given) | 70.8 µM (inactive) | 80.7 µM (inactive) | 37.7 µM (inactive) | 34.2 µM (inactive) | 41.1 µM (inactive) | 21 µM (inactive) | 40.7 µM (inactive) | 39.4 µM (inactive) | 41.3 µM (inactive) | 32.4 µM (inactive) | > 100 µM (inactive) | 58.2 µM (inactive) | 25 µM (inactive) | 44.3 µM (inactive) | 24.8 µM (inactive) | 17.1 µM (inactive) | 66.8 µM (inactive) | 25 µM (inactive) | – | –
4 | CCOC(=O)C(OP(=O)(OCC)OCC)C(F)(F)F (stereo not given) | – | > 100 µM (inactive) | – | > 100 µM (inactive) | > 100 µM (inactive) | > 100 µM (inactive) | – | > 100 µM (inactive) | > 100 µM (inactive) | > 100 µM (inactive) | – | > 100 µM (inactive) | > 100 µM (inactive) | > 100 µM (inactive) | > 100 µM (inactive) | > 100 µM (inactive) | > 100 µM (inactive) | > 100 µM (inactive) | > 100 µM (inactive) | > 100 µM (inactive)
5 | Clc1ccccc1/C=C/c1cscn1 | – | > 100 µM (inactive) | – | > 100 µM (inactive) | > 100 µM (inactive) | > 100 µM (inactive) | – | > 100 µM (inactive) | > 100 µM (inactive) | > 100 µM (inactive) | – | > 100 µM (inactive) | > 100 µM (inactive) | > 100 µM (inactive) | > 100 µM (inactive) | > 100 µM (inactive) | > 100 µM (inactive) | > 100 µM (inactive) | – | –
6 | Cc1ccc(NC(=O)S(N)(c2ccc(C)cc2)[N+](=O)[O-])cc1 (stereo not given) | – | – | > 100 µM (inactive) | > 100 µM (inactive) | > 100 µM (inactive) | – | > 100 µM (inactive) | > 100 µM (inactive) | > 100 µM (inactive) | > 100 µM (inactive) | > 100 µM (inactive) | > 100 µM (inactive) | 84.7 µM (inactive) | > 100 µM (inactive) | – | > 100 µM (inactive) | > 100 µM (inactive) | > 100 µM (inactive) | 89.7 µM (inactive) | > 100 µM (inactive)
7 | Cc1cccc(C(O)c2cccnc2)c1O (stereo not given) | > 100 µM (inactive) | > 100 µM (inactive) | > 100 µM (inactive) | > 100 µM (inactive) | > 100 µM (inactive) | > 100 µM (inactive) | > 100 µM (inactive) | > 100 µM (inactive) | – | > 100 µM (inactive) | > 100 µM (inactive) | 66.7 µM (inactive) | > 100 µM (inactive) | > 100 µM (inactive) | > 100 µM (inactive) | > 100 µM (inactive) | > 100 µM (inactive) | > 100 µM (inactive) | > 100 µM (inactive) | > 100 µM (inactive)
8 | O=C(c1ccccc1)C1C(c2ccccc2)N1S(=O)(=O)c1ccccc1 (stereo not given) | > 100 µM (inactive) | – | > 100 µM (inactive) | > 100 µM (inactive) | – | > 100 µM (inactive) | > 100 µM (inactive) | > 100 µM (inactive) | > 100 µM (inactive) | – | > 100 µM (inactive) | – | > 100 µM (inactive) | > 100 µM (inactive) | > 100 µM (inactive) | – | > 100 µM (inactive) | > 100 µM (inactive) | > 100 µM (inactive) | > 100 µM (inactive)
9 | O=c1c(-c2ccccc2)c(SCCN2CCCCCC2)n(-c2ccccc2)c(=S)n1-c1ccccc1 | – | 54.6 µM (inactive) | 30.4 µM (inactive) | – | 46.8 µM (inactive) | 20.3 µM (inactive) | 80 µM (inactive) | > 100 µM (inactive) | > 100 µM (inactive) | – | 37.2 µM (inactive) | 86.3 µM (inactive) | 13.4 µM (inactive) | 17.2 µM (inactive) | > 100 µM (inactive) | 21.8 µM (inactive) | 46.6 µM (inactive) | 20.7 µM (inactive) | 23.6 µM (inactive) | 33 µM (inactive)
10 | CC(C)=CCC(OC(=O)C=C(C)C)c1cc(O)c2c(c1O)C(=O)C=CC2=O (stereo not given) | 5.04 µM (inactive) | – | 0.382 µM (active) | 0.279 µM (active) | 2.75 µM (inactive) | – | 0.33 µM (active) | 0.853 µM (active) | 5.45 µM (inactive) | 7.46 µM (inactive) | 0.267 µM (active) | 0.753 µM (active) | – | 0.218 µM (active) | 2.3 µM (inactive) | – | 12.8 µM (inactive) | 0.171 µM (active) | – | –
11 | Brc1ccccc1-c1ncc(-c2ccccc2)o1 | 44.7 µM (inactive) | 33.6 µM (inactive) | 20.1 µM (inactive) | 34.8 µM (inactive) | 29.9 µM (inactive) | 22.6 µM (inactive) | 37.1 µM (inactive) | 40.6 µM (inactive) | 31.1 µM (inactive) | > 100 µM (inactive) | 35.6 µM (inactive) | 30.3 µM (inactive) | 14.2 µM (inactive) | 21.7 µM (inactive) | 9.91 µM (inactive) | – | 27.8 µM (inactive) | 15 µM (inactive) | 32.1 µM (inactive) | 23.6 µM (inactive)
